Results on one compound are retold here after ChEMBL document CHEMBL3124826, “Discovery of AMG 232, a potent, selective, and orally bioavailable MDM2-p53 inhibitor in clinical development” (J Med Chem, 2014).

Structures are written as SMILES.

The nature of this data set: Oral bioavailability in cynomolgus monkey. It counts as ADME, organism-based, Macaca fascicularis. Particulars: in vivo.

Regarding `CC(C)[C@@H](CS(=O)(=O)C(C)C)N1C(=O)[C@@](C)(CC(=O)O)C[C@H](c2cccc(Cl)c2)[C@H]1c1ccc(Cl)cc1` [NAVTEMADLIN], the bioavailability (usually the share of a dose that reaches the circulation, judged against a reference dose that is usually intravenous) stood at 51%.
